Laboratory results taken from PMC7026418, “The kinase polypharmacology landscape of clinical PARP inhibitors” (Scientific Reports, 2020).
Like-named read-outs stand apart in the source and are kept apart here.

Columns and labels:
Test in all cases: biochemical
Design in all cases: DiscoveRx KINOMEscan active site-directed competition binding; percent of control kinase bound to immobilised ligand
DYRK2 = molecular target: T1, DYRK2 (Homo sapiens, UniProt Q92630)
T1 sequence (Q92630 1-601): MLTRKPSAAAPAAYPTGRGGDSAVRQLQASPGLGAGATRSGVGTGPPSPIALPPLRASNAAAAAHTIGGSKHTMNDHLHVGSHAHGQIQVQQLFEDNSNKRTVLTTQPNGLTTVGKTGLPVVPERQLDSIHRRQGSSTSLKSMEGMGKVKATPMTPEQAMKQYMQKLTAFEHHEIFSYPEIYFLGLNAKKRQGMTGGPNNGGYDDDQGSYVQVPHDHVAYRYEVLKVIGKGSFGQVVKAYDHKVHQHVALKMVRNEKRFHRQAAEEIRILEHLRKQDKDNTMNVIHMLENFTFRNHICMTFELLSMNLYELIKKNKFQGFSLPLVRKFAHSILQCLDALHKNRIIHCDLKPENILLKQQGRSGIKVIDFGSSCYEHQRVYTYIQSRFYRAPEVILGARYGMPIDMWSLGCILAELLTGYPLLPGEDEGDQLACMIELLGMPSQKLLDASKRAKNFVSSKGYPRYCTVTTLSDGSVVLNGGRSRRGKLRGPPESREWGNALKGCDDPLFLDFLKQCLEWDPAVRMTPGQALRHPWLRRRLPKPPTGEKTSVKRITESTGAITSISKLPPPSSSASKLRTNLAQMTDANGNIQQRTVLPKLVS

PRKCH = PRKCH (Homo sapiens, UniProt P24723)
AKT2 = AKT2 (Homo sapiens, UniProt P31751)
ACVR1B = molecular target: T2, ACVR1B (Homo sapiens, UniProt P36896)
T2 sequence (P36896 1-505): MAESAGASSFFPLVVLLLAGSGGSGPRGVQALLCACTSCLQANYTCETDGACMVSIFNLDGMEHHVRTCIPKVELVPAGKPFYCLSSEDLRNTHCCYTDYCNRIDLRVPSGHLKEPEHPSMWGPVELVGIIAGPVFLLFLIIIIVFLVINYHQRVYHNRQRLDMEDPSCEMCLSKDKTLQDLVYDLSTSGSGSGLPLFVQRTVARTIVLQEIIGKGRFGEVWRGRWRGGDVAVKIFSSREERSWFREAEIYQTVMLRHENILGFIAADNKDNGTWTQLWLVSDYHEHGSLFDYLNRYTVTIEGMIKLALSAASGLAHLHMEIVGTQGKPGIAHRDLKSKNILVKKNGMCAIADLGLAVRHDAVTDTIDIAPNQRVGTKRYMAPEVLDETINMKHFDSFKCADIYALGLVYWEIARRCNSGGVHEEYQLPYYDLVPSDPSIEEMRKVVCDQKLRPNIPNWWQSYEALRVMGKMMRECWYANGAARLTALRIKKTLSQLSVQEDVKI

CDKL1 = CDKL1 (Homo sapiens, UniProt Q00532)
NEK1 = molecular target: T3, NEK1 (Homo sapiens, UniProt Q96PY6)
T3 sequence (Q96PY6 1-1258): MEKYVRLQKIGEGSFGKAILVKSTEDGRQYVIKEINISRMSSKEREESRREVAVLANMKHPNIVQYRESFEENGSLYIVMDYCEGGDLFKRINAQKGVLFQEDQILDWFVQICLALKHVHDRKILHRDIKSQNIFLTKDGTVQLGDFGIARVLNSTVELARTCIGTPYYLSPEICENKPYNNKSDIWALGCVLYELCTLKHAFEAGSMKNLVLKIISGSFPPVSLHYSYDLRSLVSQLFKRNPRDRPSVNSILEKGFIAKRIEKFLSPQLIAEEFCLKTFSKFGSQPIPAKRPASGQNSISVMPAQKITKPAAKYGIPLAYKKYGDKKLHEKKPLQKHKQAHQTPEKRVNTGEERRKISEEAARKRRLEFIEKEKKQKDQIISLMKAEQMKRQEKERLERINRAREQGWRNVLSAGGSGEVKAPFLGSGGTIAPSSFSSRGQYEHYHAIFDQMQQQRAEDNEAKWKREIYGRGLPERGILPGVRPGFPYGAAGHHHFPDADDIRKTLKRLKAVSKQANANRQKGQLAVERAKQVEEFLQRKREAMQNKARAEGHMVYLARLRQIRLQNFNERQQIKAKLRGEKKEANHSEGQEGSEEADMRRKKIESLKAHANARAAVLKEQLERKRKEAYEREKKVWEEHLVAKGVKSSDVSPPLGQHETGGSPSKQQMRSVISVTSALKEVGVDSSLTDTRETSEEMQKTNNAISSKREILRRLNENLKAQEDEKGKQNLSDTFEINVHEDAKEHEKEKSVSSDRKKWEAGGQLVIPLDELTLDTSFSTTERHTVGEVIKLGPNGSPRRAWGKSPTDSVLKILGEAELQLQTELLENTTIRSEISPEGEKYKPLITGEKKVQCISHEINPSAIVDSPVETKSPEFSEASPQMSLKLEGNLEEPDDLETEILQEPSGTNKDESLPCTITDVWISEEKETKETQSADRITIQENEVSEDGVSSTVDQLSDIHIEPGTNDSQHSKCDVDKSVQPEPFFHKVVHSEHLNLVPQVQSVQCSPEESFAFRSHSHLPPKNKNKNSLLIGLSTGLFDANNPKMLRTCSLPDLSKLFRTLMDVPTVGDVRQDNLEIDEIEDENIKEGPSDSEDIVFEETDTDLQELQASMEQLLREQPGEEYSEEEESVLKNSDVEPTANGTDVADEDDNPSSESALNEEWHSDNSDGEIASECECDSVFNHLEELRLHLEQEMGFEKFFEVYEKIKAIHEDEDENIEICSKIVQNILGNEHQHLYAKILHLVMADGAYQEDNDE

[1] = read-out: Talazoparib (BMN 673) / %Ctrl @ 10000nM
[2] = read-out: Olaparib / %Ctrl @ 10000nM
[3] = read-out: Rucaparib / %Ctrl @ 10000nM, binding competition, % of control
[4] = read-out: Niraparib (MK-4827) / %Ctrl @ 10000nM

Sequence of CDKL1 (Q00532 whole entry): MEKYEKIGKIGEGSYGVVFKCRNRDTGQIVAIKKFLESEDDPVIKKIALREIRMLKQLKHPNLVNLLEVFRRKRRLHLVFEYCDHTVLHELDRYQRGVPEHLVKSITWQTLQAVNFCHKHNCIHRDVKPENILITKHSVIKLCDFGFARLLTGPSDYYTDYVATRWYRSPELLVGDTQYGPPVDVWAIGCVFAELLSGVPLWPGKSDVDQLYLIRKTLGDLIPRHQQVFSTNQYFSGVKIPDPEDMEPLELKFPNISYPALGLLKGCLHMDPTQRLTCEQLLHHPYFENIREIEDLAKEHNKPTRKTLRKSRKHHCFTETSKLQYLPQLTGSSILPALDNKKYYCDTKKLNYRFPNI
Sequence of AKT2 (P31751 whole entry): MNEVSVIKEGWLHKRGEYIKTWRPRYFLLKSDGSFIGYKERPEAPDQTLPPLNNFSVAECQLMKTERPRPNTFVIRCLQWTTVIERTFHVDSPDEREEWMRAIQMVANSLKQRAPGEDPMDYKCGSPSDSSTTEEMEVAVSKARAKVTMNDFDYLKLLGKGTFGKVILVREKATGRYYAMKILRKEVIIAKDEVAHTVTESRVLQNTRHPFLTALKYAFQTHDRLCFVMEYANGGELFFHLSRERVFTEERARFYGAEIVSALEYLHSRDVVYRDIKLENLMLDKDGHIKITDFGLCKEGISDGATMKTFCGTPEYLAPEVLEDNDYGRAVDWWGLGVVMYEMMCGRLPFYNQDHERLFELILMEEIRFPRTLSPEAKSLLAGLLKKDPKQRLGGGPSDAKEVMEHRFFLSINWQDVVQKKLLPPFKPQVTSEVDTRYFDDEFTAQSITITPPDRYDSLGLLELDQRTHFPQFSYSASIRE
Sequence of PRKCH (P24723 whole entry): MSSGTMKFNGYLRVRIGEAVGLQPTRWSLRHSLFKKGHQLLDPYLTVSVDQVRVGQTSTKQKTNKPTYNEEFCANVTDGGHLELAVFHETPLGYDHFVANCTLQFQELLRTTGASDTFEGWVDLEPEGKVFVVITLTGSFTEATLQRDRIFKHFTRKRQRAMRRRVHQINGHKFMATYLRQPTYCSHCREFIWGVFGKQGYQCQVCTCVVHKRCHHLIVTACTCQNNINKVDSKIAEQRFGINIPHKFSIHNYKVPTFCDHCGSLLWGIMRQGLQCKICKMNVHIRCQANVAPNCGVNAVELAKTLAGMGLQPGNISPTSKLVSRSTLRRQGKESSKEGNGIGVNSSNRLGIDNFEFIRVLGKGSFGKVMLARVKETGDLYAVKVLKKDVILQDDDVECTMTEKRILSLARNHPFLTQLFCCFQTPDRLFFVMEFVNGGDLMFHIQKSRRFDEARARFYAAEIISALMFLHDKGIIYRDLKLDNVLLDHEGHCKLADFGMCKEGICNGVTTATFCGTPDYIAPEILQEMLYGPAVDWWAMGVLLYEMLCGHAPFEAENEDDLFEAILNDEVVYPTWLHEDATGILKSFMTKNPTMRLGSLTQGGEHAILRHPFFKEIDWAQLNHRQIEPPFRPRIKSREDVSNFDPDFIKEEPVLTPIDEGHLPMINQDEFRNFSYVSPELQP

For `Cn1ncnc1[C@H]1c2n[nH]c(=O)c3cc(F)cc(c23)N[C@@H]1c1ccc(F)cc1` [Talazoparib], the percent of control binding at 10 µM (DYRK2; [1]) was 86%, the percent of control binding at 10 µM (PRKCH; [1]) was 98% and the percent of control binding at 10 µM (AKT2; [1]) was 84%. The percent of control binding at 10 µM (ACVR1B; [1]) was 77%, the percent of control binding at 10 µM (CDKL1; [1]) was 49% and the percent of control binding at 10 µM (NEK1; [1]) was 80%.

With `O=C(c1cc(Cc2n[nH]c(=O)c3ccccc23)ccc1F)N1CCN(C(=O)C2CC2)CC1` [Olaparib] the percent of control binding at 10 µM (DYRK2; [2]) was 99%, the percent of control binding at 10 µM (PRKCH; [2]) was 94% and the percent of control binding at 10 µM (AKT2; [2]) was 79%. For the same compound, the percent of control binding at 10 µM (ACVR1B; [2]) was 100%, the percent of control binding at 10 µM (CDKL1; [2]) was 99% and the percent of control binding at 10 µM (NEK1; [2]) was 74%.

For `CNCc1ccc(-c2[nH]c3cc(F)cc4c3c2CCNC4=O)cc1` [Rucaparib], the percent of control binding at 10 µM (DYRK2; [3]) was 38%, the percent of control binding at 10 µM (PRKCH; [3]) was 94% and the percent of control binding at 10 µM (AKT2; [3]) was 87%. For the same compound, the percent of control binding at 10 µM (ACVR1B; [3]) was 89%, the percent of control binding at 10 µM (CDKL1; [3]) was 84% and the percent of control binding at 10 µM (NEK1; [3]) was 90%.

For `NC(=O)c1cccc2cn(-c3ccc([C@@H]4CCCNC4)cc3)nc12` [Niraparib], the percent of control binding at 10 µM (DYRK2; [4]) was 54%, the percent of control binding at 10 µM (PRKCH; [4]) was 85% and the percent of control binding at 10 µM (AKT2; [4]) was 93%. The percent of control binding at 10 µM (ACVR1B; [4]) was 95%, the percent of control binding at 10 µM (CDKL1; [4]) was 94% and the percent of control binding at 10 µM (NEK1; [4]) was 98%.
